Assay results as given in PMC8963254, “Effects of Lysine N-ζ-Methylation in Ultrashort Tetrabasic Lipopeptides (UTBLPs) on the Potentiation of Rifampicin, Novobiocin, and Niclosamide in Gram-Negative Bacteria” (Antibiotics, 2022).
Converted amounts (≈) assume the structure as drawn. Read-outs that look alike come from different tables or passages of the source. Values belong to the molecule of their own block, whether it stands above or below them.

What was measured:
[1] = test system: MRSA ATCC 33592; type: cell-based, Staphylococcus aureus; settings: ATCC 33592, 18 h
Experimental: (§1) The in vitro antibacterial activity of the UTBLPs was assessed against wild-type and clinically isolated bacterial strains. To obtain the MIC of the compounds, the microbroth dilution susceptibility assay was performed according to the Clinical and Laboratory Standards Institute (CLSI, Wayne, PA, USA) guidelines and as previously described. Briefly, the compounds at varying concentrations were incubated with bacterial inoculum (5 × 10^5 CFU/mL final concentration) at 37 °C for 18 h. Growth in the form of turbidity was confirmed using an EMax Plus microplate reader (Molecular Devices, San Jose, CA, USA) at 590 nm.

[2] = test system: S. aureus ATCC 29213; type: cell-based, Staphylococcus aureus; settings: ATCC 29213, 18 h
Experimental: as §1

[3] = test system: E. faecium ATCC 27270; type: cell-based, Enterococcus faecium; settings: for Interpretation: UTBLP + chloramphenicol; for MICUTBLP: UTBLP alone, plate with chloramphenicol; for MICUTBLP [MICcombo]: UTBLP in combination with chloramphenicol; for MICchloramphenicol [MICcombo]: chloramphenicol in combination with the UTBLP
Experimental: (§2) The synergy of the UTBLPs with various antibiotics was assessed using checkerboard assay as previously described. Briefly, the combination of antibiotic and OMP at varying concentrations were incubated with bacterial inoculum (5 × 10^5 CFU/mL final concentration) at 37 °C for 18 h. Growth in the form of turbidity was confirmed using an EMax Plus microplate reader (Molecular Devices, Union City, CA, USA) at 590 nm. Fractional inhibitory concentration index (FICI) was used to evaluate the interaction between the antibiotic and the OMP. FICI is the sum of the FIC of the antibiotic and the FIC of the OMP. The FIC value is calculated by dividing the MIC of the agents in combination by the MIC of the agent alone. FICI ≤ 0.5 is synergistic, 0.5 < x ≤ 4 is additive, and >4 is antagonistic.

[4] = test system: K. pneumoniae 113250; type: cell-based, Klebsiella pneumoniae; settings: for MICUTBLP: UTBLP alone
Experimental: as §2

[5] = test system: E. faecium ATCC 27270; type: cell-based, Enterococcus faecium; settings: ATCC 27270, 18 h
Experimental: as §1

[6] = test system: P. aeruginosa PA259-96196; assay: microbe, parasite or virus in culture; type: cell-based, Pseudomonas aeruginosa; settings: PA259-96196, 18 h
Experimental: as §1

[7] = test system: P. aeruginosa PA262-101856; assay: microbe, parasite or virus in culture; type: cell-based, Pseudomonas aeruginosa; settings: PA262-101856, 18 h
Experimental: as §1

[8] = test system: MRSE 61589; type: cell-based, Staphylococcus epidermidis; settings: 61589, 18 h
Experimental: as §1

[9] = test system: MSSE 81388; type: cell-based, Staphylococcus epidermidis; settings: 18 h
Experimental: as §1

[10] = test system: E. cloacae 118564; type: cell-based, Enterobacter cloacae; settings: for MICUTBLP: UTBLP alone
Experimental: as §2

[11] = test system: E. coli ATCC 25922; type: cell-based, Escherichia coli; settings: ATCC 25922, 18 h
Experimental: as §1

[12] = test system: E. faecalis ATCC 29212; type: cell-based, Enterococcus faecalis; settings: ATCC 29212, 18 h
Experimental: as §1

[13] = test system: MRSA ATCC 33592; type: cell-based, Staphylococcus aureus; settings: for Interpretation: UTBLP + chloramphenicol; for MICUTBLP: UTBLP alone, plate with chloramphenicol; for MICUTBLP [MICcombo]: UTBLP in combination with chloramphenicol; for MICchloramphenicol [MICcombo]: chloramphenicol in combination with the UTBLP
Experimental: as §2

[14] = test system: S. aureus ATCC 29213; type: cell-based, Staphylococcus aureus; settings: for MICUTBLP: UTBLP alone, plate with chloramphenicol; for MICUTBLP [MICcombo]: UTBLP in combination with chloramphenicol; for MICchloramphenicol [MICcombo]: chloramphenicol in combination with the UTBLP
Experimental: as §2

[15] = test system: E. coli 94393; type: cell-based, Escherichia coli; settings: for MICUTBLP: UTBLP alone
In short: (§3)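 Values derive from a two-agent checkerboard with an 18 h, 37 °C incubation. FICI cut-offs: ≤0.5 synergy, 0.5–4 additive, >4 antagonism.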

[16] = test system: E. coli ATCC 25922; type: cell-based, Escherichia coli; settings: for MICUTBLP: UTBLP alone
In short: as §3

[17] = UTBLP in combination with novobiocin
[18] = UTBLP in combination with rifampicin
[19] = novobiocin in combination with the UTBLP
[20] = rifampicin in combination with the UTBLP
[21] = UTBLP in combination with chloramphenicol
[22] = UTBLP in combination with niclosamide
[23] = chloramphenicol in combination with the UTBLP
[24] = niclosamide in combination with the UTBLP

MIC [1]: 128 µg/mL (≈ 155 µM)
MIC [2]: 64 µg/mL (≈ 77.6 µM)
MICUTBLP [3]: 64 µg/mL
MICUTBLP [MICcombo] [3]: 0.25 µg/mL
MICchloramphenicol [MICcombo] [3]: 8 µg/mL
MICUTBLP ([4]; plate with novobiocin): > 128 µg/mL
MICUTBLP ([4]; plate with rifampicin): > 128 µg/mL
MICUTBLP [MICcombo] [4, 17]: 8 µg/mL
MICUTBLP [MICcombo] [4, 18]: 16 µg/mL
MICantibiotic [MICcombo] [4, 19]: 16 µg/mL
MICantibiotic [MICcombo] [4, 20]: 0.5 µg/mL
MIC [5]: 64 µg/mL (≈ 77.6 µM)
MIC [6]: > 128 µg/mL
MIC [7]: 128 µg/mL (≈ 155 µM)
MIC [8]: 32 µg/mL (≈ 38.8 µM)
MIC [9]: 32 µg/mL (≈ 38.8 µM)
MICUTBLP ([10]; plate with novobiocin): > 128 µg/mL
MICUTBLP ([10]; plate with rifampicin): > 128 µg/mL
MICUTBLP [MICcombo] [10, 17]: 8 µg/mL
MICUTBLP [MICcombo] [10, 18]: 8 µg/mL
MICantibiotic [MICcombo] [10, 19]: 2 µg/mL
MICantibiotic [MICcombo] [10, 20]: 0.125 µg/mL
MIC [11]: >128 µg/mL
MIC [12]: 128 µg/mL (≈ 155 µM)
MICUTBLP [13]: 128 µg/mL
MICUTBLP [MICcombo] [13]: 0.25 µg/mL
MICchloramphenicol [MICcombo] [13]: 64 µg/mL
MICUTBLP [14]: 64 µg/mL
MICUTBLP [MICcombo] [14]: 0.25 µg/mL
MICchloramphenicol [MICcombo] [14]: 8 µg/mL
MICUTBLP ([15]; plate with novobiocin): > 128 µg/mL
MICUTBLP ([15]; plate with rifampicin): > 128 µg/mL
MICUTBLP [MICcombo] [15, 17]: 8 µg/mL
MICUTBLP [MICcombo] [15, 18]: 8 µg/mL
MICantibiotic [MICcombo] [15, 19]: 0.5 µg/mL
MICantibiotic [MICcombo] [15, 20]: 0.031 µg/mL
MICUTBLP ([16]; plate with chloramphenicol): > 128 µg/mL
MICUTBLP ([16]; plate with niclosamide): > 128 µg/mL
MICUTBLP ([16]; plate with novobiocin): > 128 µg/mL
MICUTBLP ([16]; plate with rifampicin): > 128 µg/mL
MICUTBLP [MICcombo] [16, 21]: 32 µg/mL
MICUTBLP [MICcombo] [16, 22]: 8 µg/mL
MICUTBLP [MICcombo] [16, 17]: 8 µg/mL
MICUTBLP [MICcombo] [16, 18]: 8 µg/mL
MICantibiotic [MICcombo] [16, 23]: 1 µg/mL
MICantibiotic [MICcombo] [16, 24]: 0.5 µg/mL
MICantibiotic [MICcombo] [16, 19]: 0.25 µg/mL
MICantibiotic [MICcombo] [16, 20]: 0.125 µg/mL
Structure (SMILES): CCCCCCCC(=O)N[C@@H](CCCCN)C(=O)NCCCN(CCCNC(=O)[C@H](CCCCN)NC(=O)CCCCCCC)CC(=O)N[C@@H](CCCCN)C(N)=O [UTBLP 1]
Interpretation [3]: Additive (0.5 < x ≤ 4 is additive)
Interpretation ([4]; UTBLP + novobiocin): Synergy (FICI ≤ 0.5 is synergistic)
Interpretation ([4]; UTBLP + rifampicin): Synergy (FICI ≤ 0.5 is synergistic)
Interpretation ([10]; UTBLP + novobiocin): Synergy (FICI ≤ 0.5 is synergistic)
Interpretation ([10]; UTBLP + rifampicin): Synergy (FICI ≤ 0.5 is synergistic)
Interpretation [13]: Additive (0.5 < x ≤ 4 is additive)
Interpretation ([15]; UTBLP + novobiocin): Synergy (FICI ≤ 0.5 is synergistic)
Interpretation ([15]; UTBLP + rifampicin): Synergy (FICI ≤ 0.5 is synergistic)
Interpretation ([16]; UTBLP + chloramphenicol): Synergy (FICI ≤ 0.5 is synergistic)
Interpretation ([16]; UTBLP + niclosamide): Synergy (FICI ≤ 0.5 is synergistic)
Interpretation ([16]; UTBLP + novobiocin): Synergy (FICI ≤ 0.5 is synergistic)
Interpretation ([16]; UTBLP + rifampicin): Synergy (FICI ≤ 0.5 is synergistic)

MIC [1]: >128 µg/mL
MIC [2]: 128 µg/mL (≈ 148 µM)
MICUTBLP [3]: > 128 µg/mL
MICUTBLP [MICcombo] [3]: 0.25 µg/mL
MICchloramphenicol [MICcombo] [3]: 8 µg/mL
MICUTBLP ([4]; plate with novobiocin): > 128 µg/mL
MICUTBLP ([4]; plate with rifampicin): > 128 µg/mL
MICUTBLP [MICcombo] [4, 17]: 16 µg/mL
MICUTBLP [MICcombo] [4, 18]: 16 µg/mL
MICantibiotic [MICcombo] [4, 19]: 4 µg/mL
MICantibiotic [MICcombo] [4, 20]: 4 µg/mL
MIC [5]: >128 µg/mL
MIC [6]: > 128 µg/mL
MIC [7]: > 128 µg/mL
MIC [8]: 64 µg/mL (≈ 73.8 µM)
MIC [9]: 64 µg/mL (≈ 73.8 µM)
MICUTBLP ([10]; plate with novobiocin): > 128 µg/mL
MICUTBLP ([10]; plate with rifampicin): > 128 µg/mL
MICUTBLP [MICcombo] [10, 17]: 16 µg/mL
MICUTBLP [MICcombo] [10, 18]: 16 µg/mL
MICantibiotic [MICcombo] [10, 19]: 8 µg/mL
MIC [11]: >128 µg/mL
MIC [12]: >128 µg/mL
MICUTBLP [13]: > 128 µg/mL
MICUTBLP [MICcombo] [13]: 0.25 µg/mL
MICchloramphenicol [MICcombo] [13]: 64 µg/mL
MICUTBLP [14]: 128 µg/mL
MICUTBLP [MICcombo] [14]: 0.25 µg/mL
MICchloramphenicol [MICcombo] [14]: 16 µg/mL
MICUTBLP ([15]; plate with novobiocin): > 128 µg/mL
MICUTBLP ([15]; plate with rifampicin): > 128 µg/mL
MICUTBLP [MICcombo] [15, 17]: 16 µg/mL
MICUTBLP [MICcombo] [15, 18]: 16 µg/mL
MICantibiotic [MICcombo] [15, 19]: 1 µg/mL
MICantibiotic [MICcombo] [15, 20]: 0.125 µg/mL
MICUTBLP ([16]; plate with chloramphenicol): > 128 µg/mL
MICUTBLP ([16]; plate with niclosamide): > 128 µg/mL
MICUTBLP ([16]; plate with novobiocin): > 128 µg/mL
MICUTBLP ([16]; plate with rifampicin): > 128 µg/mL
MICUTBLP [MICcombo] [16, 21]: 0.25 µg/mL
MICUTBLP [MICcombo] [16, 22]: 4 µg/mL
MICUTBLP [MICcombo] [16, 17]: 8 µg/mL
MICUTBLP [MICcombo] [16, 18]: 16 µg/mL
MICantibiotic [MICcombo] [16, 23]: 2 µg/mL
MICantibiotic [MICcombo] [16, 24]: 2 µg/mL
MICantibiotic [MICcombo] [16, 19]: 1 µg/mL
MICantibiotic [MICcombo] [16, 20]: 0.125 µg/mL
Structure (SMILES): CCCCCCCC(=O)N[C@@H](CCCCNC)C(=O)NCCCN(CCCNC(=O)[C@H](CCCCNC)NC(=O)CCCCCCC)CC(=O)N[C@@H](CCCCNC)C(N)=O [UTBLP 2]
Interpretation [3]: Additive (0.5 < x ≤ 4 is additive)
Interpretation ([4]; UTBLP + novobiocin): Synergy (FICI ≤ 0.5 is synergistic)
Interpretation ([4]; UTBLP + rifampicin): Synergy (FICI ≤ 0.5 is synergistic)
Interpretation ([10]; UTBLP + novobiocin): Synergy (FICI ≤ 0.5 is synergistic)
Interpretation ([10]; UTBLP + rifampicin): Synergy (FICI ≤ 0.5 is synergistic)
Interpretation [13]: Additive (0.5 < x ≤ 4 is additive)
Interpretation ([15]; UTBLP + novobiocin): Synergy (FICI ≤ 0.5 is synergistic)
Interpretation ([15]; UTBLP + rifampicin): Synergy (FICI ≤ 0.5 is synergistic)
Interpretation ([16]; UTBLP + chloramphenicol): Additive (0.5 < x ≤ 4 is additive)
Interpretation ([16]; UTBLP + niclosamide): Synergy (FICI ≤ 0.5 is synergistic)
Interpretation ([16]; UTBLP + novobiocin): Synergy (FICI ≤ 0.5 is synergistic)
Interpretation ([16]; UTBLP + rifampicin): Synergy (FICI ≤ 0.5 is synergistic)
